Laboratory results reported in patent publication US20250082600A1, “TREATING HAEMATOLOGICAL MALIGNANCIES BY MEANS OF SATRAPLATIN” (PHARMA& SCHWEIZ GMBH, priority 2022, published 2025).

Columns and labels:
[1] = system: hormone refractory prostate cancer patients (HRPC); details: monotherapy; cited from earlier work
[2] = system: OCI-LY3 cell line; assay: CTG cell viability assay, OCI-LY3; assay type: cell-based, human
Experimental: (§1) Cell lines and reagents. All cell lines were cultured in appropriate media supplemented with 10-15% fetal bovine serum (Cat #FND500, ExCell Bio, China) at a temperature of 37° C., 5% CO2 and 95% humidity. Cell viability was measured using the CTG Luminescent Cell Viability Assay (Promega, Madison, WI, USA) by standard procedures as described below. Satraplatin was purchased from MedChemExpress (Shanghai, PRC) and cisplatin from Qilu Pharm (Jinan, Shandong, PRC), respectively. 1 mM stock solutions of both drugs were established for storage at −20° C. as previously described (5).
(§2) Determination of the half maximal inhibition concentration (IC50). Cells were harvested during the logarithmic growth period and cell numbers counted using Count-star (Inno-Alliance Biotech, USA). Cell density was adjusted to 4.44×10^4 cells/mL with the respective culture medium. […] The test plate was incubated for 72 h in the humidified incubator at 37° C. with 5% CO2, and then evaluated using CTG cell viability assay (Promega). […] Luminescence was recorded using EnVision Multi Label Reader (Perkin Elmer, Richmond, CA, USA).
(§3) Data Analysis. The data were analyzed and visualized using GraphPad Prism 5.0 (GraphPad Software, San Diego, CA, USA) and Think-Cell 11 (Think-Cell Software, Berlin, Germany). […] The absolute IC50 was calculated according to the dose-response curve generated by GraphPad Prism 5.0. […]

[3] = system: BCL2 expression; details: cited from earlier work
[4] = cited from earlier work
[5] = system: OCI-LY7 cells; assay: CTG cell viability assay, OCI-LY7; assay type: cell-based, human
Experimental: as §1, §2, §3

[6] = system: CTCL cell line HUT78; assay: CTG cell viability assay, HUT78; assay type: cell-based, human
Experimental: as §1, §2, §3

[7] = system: MTAP deficient cell lines; assay: Satraplatin IC50 plotted against MTAP status; assay type: cell-based, human
Experimental: as §1, §2, §3

[8] = system: DLBCL cell lines; assay: CTG cell viability assay, DLBCL cell lines; assay type: cell-based, human; details: DLBCL and its respective cell lines
Experimental: as §1, §2, §3

[9] = system: hematological malignancies (n=44) cell lines; assay: CTG cell viability assay, hematological malignancy cell lines; assay type: cell-based, human
Experimental: as §1
as §2, with “medium. Then, 90 μL cell suspensions were added in triplicate to a 96-well plate with the final cell density of 4×10^3 cells/well.” for “medium.”, “(Promega). For that purpose, plates were equilibrated at room temperature for approximately 30 min. Then, 50 μL CTG reagent was added to each well.” for “(Promega).”
(§4) Data Analysis. The data were analyzed and visualized using GraphPad Prism 5.0 (GraphPad Software, San Diego, CA, USA) and Think-Cell 11 (Think-Cell Software, Berlin, Germany). […] The formula for calculating the cell survival rate was: Cell survival (%) at Cx=(Cx−M)/(N−M)×100%, Cx being the luminescence signal of cells cultured with any concentration of the test compound, M being the luminescence signal of the blank control (with no cells) and N being the vehicle control with culture medium containing 0.25% (v/v) dimethyl sulfoxide. The absolute IC50 was calculated according to the dose-response curve generated by GraphPad Prism 5.0. […]

[10] = system: 66 cancer cell lines; assay: CTG cell viability assay, 66 cancer cell lines (AUC); assay type: cell-based, human; details: for activity (AUC) in hematological malignancies compared to solid organ cancers: ANOVA p-value=2.3e-08
Experimental: as §1
as §2, with “medium. Then, 90 μL cell suspensions were added in triplicate to a 96-well plate with the final cell density of 4×10^3 cells/well.” for “medium.”, “(Promega). For that purpose, plates were equilibrated at room temperature for approximately 30 min. Then, 50 μL CTG reagent was added to each well.” for “(Promega).”
as §4

[11] = system: lymphoma cell lines harboring gene copy number deletions in the 9p21 locus; assay: Satraplatin sensitivity versus DNA copy number deletion; assay type: cell-based, human; details: MTAP/CDKN2A/CDKN2B/DMRTA1 deletions
Experimental: as §2, with “medium. Then, 90 μL cell suspensions were added in triplicate to a 96-well plate with the final cell density of 4×10^3 cells/well.” for “medium.”, “(Promega). For that purpose, plates were equilibrated at room temperature for approximately 30 min. Then, 50 μL CTG reagent was added to each well.” for “(Promega).”
as §4, with “sulfoxide.” for “sulfoxide. The absolute IC50 was calculated according to the dose-response curve generated by GraphPad Prism 5.0.”

CC(=O)[O][Pt]([NH2])([Cl])([Cl])([NH]C1CCCCC1)[O]C(C)=O [satraplatin, bis (acetato) ammine dichloro (cyclohexylamine) platinum (IV)]
objective response rate [1]: up to 31%
cell killing [2]: killed very efficiently
activity compared with cisplatin ([2]; p-value of 0.0006): significantly more active than cisplatin
effectiveness in contrast to oxaliplatin [3]: significantly more effective
reduction of BCL2 expression ([3]; independently of P53 mutational status): up to 13 fold
access to the cerebrospinal fluid [4]: access the cerebrospinal fluid at sufficient dose levels
killing compared to cisplatin [5]: significantly superior
IC50 [6]: low-micromolar
activity in MTAP deleted hematopoietic cell lines [7]: high activity
IC50 values [8]: low micromolar or even sub-molar
activity grouped by histology ([9]; DLBCL, T-cell lymphoma, MCL, MM and Burkitt lymphoma cell lines): high activity
IC50 values ([9]; group of hematologic malignancies, 72 h, CTG): low to sub micromolar levels
activity compared with standard cisplatin ([9]; within the group of hematologic malignancies, p-value=0.009, FIG. 2): significantly more active
activity (AUC) in hematological malignancies compared to solid organ cancers [10]: significant higher activity in haematopoietic & lymphoid malignancies
activity (AUC) in hematological malignancies compared to solid organ cancers ([10]; listed as Satraplatin): significantly more active in hematological malignancies
median AUC value across all tested cell lines ([10]; area under dose-response curve, 72 h, CTG, FIG. 1): 2.35
activity on cell lines with 9p21 copy number deletions [11]: more active
